Laboratory results: patent publication US11524968B2, “Heterocyclic compound as a protein kinase inhibitor” (HK inno.N Corporation, priority 2017, dated 2022)

Target: JAK1 (Homo sapiens (Human), UniProt P23458)
Test: Analysis of JAK1 activity inhibition ability (ADP-Glo Kinase Assay)
Type: biochemical
Conditions: JAK1 enzyme, ADP-Glo luminescence, ATP 250 uM, IRS-itide substrate, 30° C. 40 minutes; read-out: IC50
In short: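 ADP-Glo luminescence read-out of ADP production, with IC50 taken as the concentration halving JAK1 activity relative to control. Enzyme was incubated 40 min at 30 °C with compound, IRS-itide (40 ng/mL) and ATP (250 uM), concentrations as prepared in pH 7.5 Tris-HCl/MgCl2/BSA/DTT buffer.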

Chain of JAK1 (P23458 whole entry): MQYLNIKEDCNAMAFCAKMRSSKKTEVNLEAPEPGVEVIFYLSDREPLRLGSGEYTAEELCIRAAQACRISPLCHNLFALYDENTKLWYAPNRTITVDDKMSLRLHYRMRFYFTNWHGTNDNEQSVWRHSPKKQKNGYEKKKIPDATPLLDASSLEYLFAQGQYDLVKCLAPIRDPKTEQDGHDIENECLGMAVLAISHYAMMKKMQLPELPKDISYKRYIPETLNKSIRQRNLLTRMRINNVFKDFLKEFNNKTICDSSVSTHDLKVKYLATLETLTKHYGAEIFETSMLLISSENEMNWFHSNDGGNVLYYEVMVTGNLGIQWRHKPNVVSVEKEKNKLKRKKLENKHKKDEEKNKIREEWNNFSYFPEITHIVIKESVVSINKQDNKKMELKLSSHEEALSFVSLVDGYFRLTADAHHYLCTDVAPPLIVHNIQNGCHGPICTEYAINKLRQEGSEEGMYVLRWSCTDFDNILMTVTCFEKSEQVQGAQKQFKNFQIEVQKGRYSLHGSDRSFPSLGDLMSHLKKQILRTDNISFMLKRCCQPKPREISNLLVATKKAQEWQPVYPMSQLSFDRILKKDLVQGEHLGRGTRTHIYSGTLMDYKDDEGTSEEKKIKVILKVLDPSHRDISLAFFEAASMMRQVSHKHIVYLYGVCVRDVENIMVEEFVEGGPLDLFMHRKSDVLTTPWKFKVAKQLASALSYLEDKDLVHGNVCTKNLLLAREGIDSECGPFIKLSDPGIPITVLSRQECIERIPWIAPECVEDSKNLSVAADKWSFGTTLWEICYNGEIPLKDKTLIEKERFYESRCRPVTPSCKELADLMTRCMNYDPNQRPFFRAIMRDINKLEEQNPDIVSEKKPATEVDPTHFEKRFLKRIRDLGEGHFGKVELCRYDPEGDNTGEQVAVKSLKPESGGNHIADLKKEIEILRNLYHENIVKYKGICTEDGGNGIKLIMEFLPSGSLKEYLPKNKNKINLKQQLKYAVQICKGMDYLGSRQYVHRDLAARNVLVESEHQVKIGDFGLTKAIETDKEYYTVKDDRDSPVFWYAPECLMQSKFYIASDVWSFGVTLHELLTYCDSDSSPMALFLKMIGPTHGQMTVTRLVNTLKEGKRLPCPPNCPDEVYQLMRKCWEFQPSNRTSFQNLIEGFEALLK

Structure (SMILES) | IC50 [nM]
O=C1CCN(Cc2ccc(-c3cc(NC(=O)C4CC4)nc4[nH]ccc34)cc2)CC1 [Example 585, N-(4-(4-((4-oxopiperidin-1-yl)methyl)phenyl)-1H-pyrrolo[2,3-b]pyridin-6-yl)cyclopropanecarboxamide] | < 20
O=C(Nc1cc(-c2ccc(NS(=O)(=O)C3CCCCC3)c(F)c2)c2cc[nH]c2n1)C1CC1 [Example 68, N-(4-(4-(cyclohexanesulfonamido)-3-fluorophenyl)-1H-pyrrolo[2,3-b]pyridin-6-yl)cyclopropanecarboxamide] | < 20
CC(C)(C)OC(=O)N[C@H]1CCN(c2cc(NC(=O)C3CC3)nc3[nH]ccc23)C1 [Example 697, tert-butyl (S)-(1-(6-(cyclopropanecarboxamido)-1H-pyrrolo[2,3-b]pyridin-4-yl)pyrrolidin-3-yl)carbamate] | > 200
CCS(=O)(=O)N1CC(n2cc(-c3cc(NC(=O)C4CC4)nc4[nH]ccc34)cn2)C1 [Example 601, N-(4-(1-(1-(ethylsulfonyl)azetidin-3-yl)-1H-pyrazol-4-yl)-1H-pyrrolo[2,3-b]pyridin-6-yl)cyclopropanecarboxamide] | 20 to 200
O=C(Nc1nc(-c2ccc(NS(=O)(=O)c3ccc(F)cc3)cc2)c2cc[nH]c2n1)C1CC1 [Example 188, N-(4-(4-((4-fluorophenyl)sulfonamido)phenyl)-7H-pyrrolo[2,3-d]pyrimidin-2-yl)cyclopropanecarboxamide] | < 20
O=C(Nc1cc(-c2ccc(C(F)(F)C(=O)N3CCS(=O)(=O)CC3)cc2)c2cc[nH]c2n1)C1CC1 [Example 571, N-(4-(4-(2-(1,1-dioxidothiomorpholino)-1,1-difluoro-2-oxoethyl)phenyl)-1H-pyrrolo[2,3-b]pyridin-6-yl)cyclopropanecarboxamide] | 20 to 200
CC(C)(C)C1C=C(c2cc(NC(=O)C3CC3)nc3[nH]ccc23)CCN1C(=O)CC#N (stereo not shown) [Example 412, N-(4-(6-(tert-butyl)-1-(2-cyanoacetyl)-1,2,3,6-tetrahydropyridin-4-yl)-1H-pyrrolo[2,3-b]pyridin-6-yl)cyclopropanecarboxamide] | < 20
